From the kinase profiling compilation of Christmann-Franck et al. (2016)
“And” between values parts separate entries of the source, which are not always exact repeats. Equal entries are not always repeated.

How the values were obtained:
Test in all cases: radiometric filter-binding kinase assay
MAP3K5 (human) = MAP3K5 (human) (UniProt Q99683); conditions: compound 100.0 µM; ATP 50 µM
RPS6KA5 KD1 KD2 (human) = RPS6KA5 KD1 KD2 (human) (UniProt O75582); conditions: compound 100.0 µM; ATP 20 µM
EEF2K (human) = EEF2K (human) (UniProt O00418); conditions: compound 100.0 µM; ATP 5 µM
MYLK (human) = MYLK (human) (UniProt Q15746); conditions: compound 100.0 µM; ATP 50 µM
STK16 (human) = STK16 (human) (UniProt O75716); conditions: compound 100.0 µM; ATP 50 µM
MKNK2 (human) = MKNK2 (human) (UniProt Q9HBH9); conditions: compound 100.0 µM; ATP 50 µM
MAPK12 (human) = MAPK12 (human) (UniProt P53778); conditions: compound 100.0 µM; ATP 5 µM
PHKG1 (human) = PHKG1 (human) (UniProt Q16816); conditions: compound 100.0 µM; ATP 50 µM
GCK (human) = GCK (human) (UniProt Q12851); conditions: compound 100.0 µM; ATP 20 µM
PRKACA (human) = PRKACA (human) (UniProt P17612); conditions: compound 100.0 µM; ATP 20 µM
MARK2 (human) = MARK2 (human) (UniProt Q7KZI7); conditions: compound 100.0 µM; ATP 20 µM
NUAK1 (human) = NUAK1 (human) (UniProt O60285); conditions: compound 100.0 µM; ATP 20 µM
MAPK8 (human) = MAPK8 (human) (UniProt P45983); conditions: compound 100.0 µM; ATP 20 µM
ERBB4 (human) = ERBB4 (human) (UniProt Q15303); conditions: compound 100.0 µM; ATP 5 µM
CaMK1 (human) = CaMK1 (human) (UniProt Q14012); conditions: compound 100.0 µM; ATP 50 µM
PTK6 (human) = PTK6 (human) (UniProt Q13882); conditions: compound 100.0 µM; ATP 20 µM
MARK1 (human) = MARK1 (human) (UniProt Q9P0L2); conditions: compound 100.0 µM; ATP 20 µM
IKBKE (human) = IKBKE (human) (UniProt Q14164); conditions: compound 100.0 µM; ATP 50 µM
MAPKAPK5 (human) = MAPKAPK5 (human) (UniProt Q8IW41); conditions: compound 100.0 µM; ATP 20 µM
AURKA (human) = AURKA (human) (UniProt O14965); conditions: compound 100.0 µM; ATP 5 µM
LCK (mouse) = conditions: compound 100.0 µM; ATP 50 µM; accession and sequence are those of the human protein
MELK (human) = MELK (human) (UniProt Q14680); conditions: compound 100.0 µM; ATP 50 µM
[1] = system: PAK2 (human), Q13177 [T402E]; conditions: compound 100.0 µM; ATP 20 µM
YES1 (human) = YES1 (human) (UniProt P07947); conditions: compound 100.0 µM; ATP 20 µM
ABL1 (human) = ABL1 (human) (UniProt P00519); conditions: compound 100.0 µM; ATP 5 µM
MAP3K9 (human) = MAP3K9 (human) (UniProt P80192); conditions: compound 100.0 µM; ATP 20 µM
MAPK3 (human) = MAPK3 (human) (UniProt P27361); conditions: compound 100.0 µM; ATP 5 µM
GSK3B (human) = GSK3B (human) (UniProt P49841); conditions: compound 100.0 µM; ATP 5 µM
PAK4 (human) = PAK4 (human) (UniProt O96013); conditions: compound 100.0 µM; ATP 5 µM
SYK (human) = SYK (human) (UniProt P43405); conditions: compound 100.0 µM; ATP 20 µM
MAPKAPK2 (human) = MAPKAPK2 (human) (UniProt P49137); conditions: compound 100.0 µM; ATP 20 µM
IKBKB (human) = IKBKB (human) (UniProt O14920); conditions: compound 100.0 µM; ATP 5 µM
MAP3K11 (human) = MAP3K11 (human) (UniProt Q16584); conditions: compound 100.0 µM; ATP 20 µM
NEK6 (human) = NEK6 (human) (UniProt Q9HC98); conditions: compound 100.0 µM; ATP 50 µM
PDPK1 (human) = PDPK1 (human) (UniProt O15530); conditions: compound 100.0 µM

Sequence of STK16 (human) (O75716 whole entry, looked up): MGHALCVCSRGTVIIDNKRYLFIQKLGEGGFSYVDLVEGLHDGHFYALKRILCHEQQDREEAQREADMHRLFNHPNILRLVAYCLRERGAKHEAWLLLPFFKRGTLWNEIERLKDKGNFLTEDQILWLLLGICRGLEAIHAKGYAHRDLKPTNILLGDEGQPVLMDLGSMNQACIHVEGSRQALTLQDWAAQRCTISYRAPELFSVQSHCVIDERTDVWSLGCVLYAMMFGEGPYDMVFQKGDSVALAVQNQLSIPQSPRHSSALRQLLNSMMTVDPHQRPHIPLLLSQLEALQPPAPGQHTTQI
Sequence of GCK (human) (Q12851 whole entry, looked up): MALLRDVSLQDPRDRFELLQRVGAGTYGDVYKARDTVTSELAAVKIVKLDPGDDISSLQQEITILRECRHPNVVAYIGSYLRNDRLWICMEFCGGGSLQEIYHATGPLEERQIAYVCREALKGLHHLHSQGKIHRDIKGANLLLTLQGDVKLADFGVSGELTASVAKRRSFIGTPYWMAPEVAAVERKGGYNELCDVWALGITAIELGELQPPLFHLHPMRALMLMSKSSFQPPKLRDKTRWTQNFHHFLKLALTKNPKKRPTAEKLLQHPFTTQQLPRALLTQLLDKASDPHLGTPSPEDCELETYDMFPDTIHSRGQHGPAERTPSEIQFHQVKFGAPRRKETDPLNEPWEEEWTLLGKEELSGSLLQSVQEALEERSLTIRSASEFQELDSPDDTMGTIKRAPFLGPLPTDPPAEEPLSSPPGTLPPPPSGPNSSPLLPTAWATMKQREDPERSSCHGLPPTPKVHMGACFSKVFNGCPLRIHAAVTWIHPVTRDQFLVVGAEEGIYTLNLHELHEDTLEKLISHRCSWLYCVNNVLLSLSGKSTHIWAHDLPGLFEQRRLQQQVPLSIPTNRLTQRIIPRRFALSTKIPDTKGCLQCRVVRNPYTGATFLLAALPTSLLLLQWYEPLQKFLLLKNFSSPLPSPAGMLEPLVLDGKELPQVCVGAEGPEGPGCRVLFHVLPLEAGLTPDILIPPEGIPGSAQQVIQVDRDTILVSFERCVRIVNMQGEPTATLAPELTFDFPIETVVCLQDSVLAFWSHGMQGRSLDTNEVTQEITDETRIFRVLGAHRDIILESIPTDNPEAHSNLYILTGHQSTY
Sequence of PTK6 (human) (Q13882 whole entry, looked up): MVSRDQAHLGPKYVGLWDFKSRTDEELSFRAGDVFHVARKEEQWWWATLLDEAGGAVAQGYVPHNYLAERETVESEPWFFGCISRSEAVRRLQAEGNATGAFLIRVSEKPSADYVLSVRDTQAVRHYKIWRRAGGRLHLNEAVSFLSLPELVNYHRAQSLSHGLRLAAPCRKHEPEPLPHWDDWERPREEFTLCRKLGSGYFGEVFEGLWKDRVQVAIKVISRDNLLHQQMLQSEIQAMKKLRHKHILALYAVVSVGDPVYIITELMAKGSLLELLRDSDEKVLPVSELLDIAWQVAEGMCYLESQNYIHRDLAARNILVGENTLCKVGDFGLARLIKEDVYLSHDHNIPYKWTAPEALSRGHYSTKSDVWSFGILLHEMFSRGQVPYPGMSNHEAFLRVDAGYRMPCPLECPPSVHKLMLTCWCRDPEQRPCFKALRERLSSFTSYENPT
Sequence of EEF2K (human) (O00418 whole entry, looked up): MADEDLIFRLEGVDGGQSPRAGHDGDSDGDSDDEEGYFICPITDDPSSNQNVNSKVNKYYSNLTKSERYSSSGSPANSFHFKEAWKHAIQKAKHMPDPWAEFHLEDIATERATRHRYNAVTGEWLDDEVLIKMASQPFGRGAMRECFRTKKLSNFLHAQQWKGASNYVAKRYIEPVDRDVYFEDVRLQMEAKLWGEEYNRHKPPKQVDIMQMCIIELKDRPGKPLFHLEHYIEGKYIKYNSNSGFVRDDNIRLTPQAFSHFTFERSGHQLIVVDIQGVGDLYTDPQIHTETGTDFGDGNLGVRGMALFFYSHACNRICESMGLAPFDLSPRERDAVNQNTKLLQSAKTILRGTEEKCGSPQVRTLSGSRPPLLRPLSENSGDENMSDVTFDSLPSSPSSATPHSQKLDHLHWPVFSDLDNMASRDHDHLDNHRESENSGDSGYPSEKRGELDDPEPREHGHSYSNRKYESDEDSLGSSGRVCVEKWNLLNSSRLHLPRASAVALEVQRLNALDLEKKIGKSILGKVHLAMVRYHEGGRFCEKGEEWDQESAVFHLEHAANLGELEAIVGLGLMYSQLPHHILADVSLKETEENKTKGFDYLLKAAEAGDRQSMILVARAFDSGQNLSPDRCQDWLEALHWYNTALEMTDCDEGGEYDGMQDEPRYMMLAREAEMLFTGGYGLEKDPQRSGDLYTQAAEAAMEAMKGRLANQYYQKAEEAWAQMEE
Sequence of MARK1 (human) (Q9P0L2 whole entry, looked up): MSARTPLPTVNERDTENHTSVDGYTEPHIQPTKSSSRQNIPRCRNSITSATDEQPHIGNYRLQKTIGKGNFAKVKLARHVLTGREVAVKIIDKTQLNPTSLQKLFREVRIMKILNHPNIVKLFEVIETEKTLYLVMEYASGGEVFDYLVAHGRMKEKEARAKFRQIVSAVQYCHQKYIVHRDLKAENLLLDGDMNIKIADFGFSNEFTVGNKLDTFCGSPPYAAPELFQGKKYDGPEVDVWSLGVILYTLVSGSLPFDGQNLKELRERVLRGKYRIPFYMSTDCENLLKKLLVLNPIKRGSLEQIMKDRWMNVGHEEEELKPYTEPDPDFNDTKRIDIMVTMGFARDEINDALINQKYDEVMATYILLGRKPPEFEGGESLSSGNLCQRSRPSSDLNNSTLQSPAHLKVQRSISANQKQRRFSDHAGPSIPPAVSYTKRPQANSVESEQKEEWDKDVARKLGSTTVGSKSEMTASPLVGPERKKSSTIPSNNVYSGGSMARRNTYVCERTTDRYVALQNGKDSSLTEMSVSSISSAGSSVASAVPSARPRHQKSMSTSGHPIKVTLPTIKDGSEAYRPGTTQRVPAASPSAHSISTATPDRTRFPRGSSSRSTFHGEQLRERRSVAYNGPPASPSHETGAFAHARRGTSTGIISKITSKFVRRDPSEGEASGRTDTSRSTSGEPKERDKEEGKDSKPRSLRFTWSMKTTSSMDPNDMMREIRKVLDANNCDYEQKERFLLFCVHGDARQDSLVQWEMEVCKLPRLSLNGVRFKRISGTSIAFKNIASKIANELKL
Sequence of MELK (human) (Q14680 whole entry, looked up): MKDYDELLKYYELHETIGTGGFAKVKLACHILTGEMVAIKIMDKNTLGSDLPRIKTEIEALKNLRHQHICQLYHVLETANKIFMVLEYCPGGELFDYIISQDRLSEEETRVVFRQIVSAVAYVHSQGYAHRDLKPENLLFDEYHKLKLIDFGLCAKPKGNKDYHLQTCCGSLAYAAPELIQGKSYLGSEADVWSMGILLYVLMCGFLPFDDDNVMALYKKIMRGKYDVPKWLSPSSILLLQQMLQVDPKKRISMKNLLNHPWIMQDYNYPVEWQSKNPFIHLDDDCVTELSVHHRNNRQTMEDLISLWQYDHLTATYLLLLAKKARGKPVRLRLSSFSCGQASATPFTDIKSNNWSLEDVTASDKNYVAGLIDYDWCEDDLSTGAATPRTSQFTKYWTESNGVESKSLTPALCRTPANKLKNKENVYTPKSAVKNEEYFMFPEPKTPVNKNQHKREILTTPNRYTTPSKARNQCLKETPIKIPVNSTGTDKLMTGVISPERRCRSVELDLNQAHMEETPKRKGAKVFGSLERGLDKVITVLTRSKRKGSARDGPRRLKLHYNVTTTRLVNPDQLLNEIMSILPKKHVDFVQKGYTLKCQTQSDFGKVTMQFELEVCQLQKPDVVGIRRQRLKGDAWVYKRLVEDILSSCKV
Sequence of PAK2 (human), Q13177 [T402E] (Q13177 whole entry T402E, looked up): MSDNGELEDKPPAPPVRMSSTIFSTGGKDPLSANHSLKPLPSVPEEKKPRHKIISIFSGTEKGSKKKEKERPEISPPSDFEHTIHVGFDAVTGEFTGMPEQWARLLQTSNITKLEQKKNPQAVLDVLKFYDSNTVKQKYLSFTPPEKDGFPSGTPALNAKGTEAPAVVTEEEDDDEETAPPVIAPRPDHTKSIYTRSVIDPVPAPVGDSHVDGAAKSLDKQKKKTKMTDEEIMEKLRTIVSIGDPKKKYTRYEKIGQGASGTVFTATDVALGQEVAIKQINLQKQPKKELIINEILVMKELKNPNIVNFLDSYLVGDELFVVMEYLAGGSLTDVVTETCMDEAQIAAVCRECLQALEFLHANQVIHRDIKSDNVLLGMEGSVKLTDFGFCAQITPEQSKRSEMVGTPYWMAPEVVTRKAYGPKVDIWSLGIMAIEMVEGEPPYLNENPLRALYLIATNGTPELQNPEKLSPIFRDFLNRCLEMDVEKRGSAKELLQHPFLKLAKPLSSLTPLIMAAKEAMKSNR
Sequence of AURKA (human) (O14965 whole entry, looked up): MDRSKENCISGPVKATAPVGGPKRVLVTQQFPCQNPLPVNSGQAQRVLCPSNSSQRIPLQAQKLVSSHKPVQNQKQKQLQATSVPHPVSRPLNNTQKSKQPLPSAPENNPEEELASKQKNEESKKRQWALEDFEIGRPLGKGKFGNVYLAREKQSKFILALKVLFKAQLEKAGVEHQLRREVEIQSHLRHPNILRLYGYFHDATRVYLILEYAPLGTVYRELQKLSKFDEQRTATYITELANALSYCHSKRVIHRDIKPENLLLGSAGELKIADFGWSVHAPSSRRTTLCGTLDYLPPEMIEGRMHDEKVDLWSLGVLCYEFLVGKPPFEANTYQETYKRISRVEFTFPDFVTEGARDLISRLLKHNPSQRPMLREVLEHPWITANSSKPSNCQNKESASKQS
Sequence of NEK6 (human) (Q9HC98 whole entry, looked up): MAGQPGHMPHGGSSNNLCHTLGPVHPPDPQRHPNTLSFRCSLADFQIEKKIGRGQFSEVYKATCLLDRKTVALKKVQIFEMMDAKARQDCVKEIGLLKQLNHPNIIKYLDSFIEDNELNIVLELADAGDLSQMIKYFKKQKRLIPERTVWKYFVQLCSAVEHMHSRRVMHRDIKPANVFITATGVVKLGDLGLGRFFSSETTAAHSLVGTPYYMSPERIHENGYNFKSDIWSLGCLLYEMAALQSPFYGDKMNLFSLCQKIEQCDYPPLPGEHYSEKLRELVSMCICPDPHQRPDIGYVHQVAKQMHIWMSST

inhibition (MAP3K5 (human)) [%] | inhibition (RPS6KA5 KD1 KD2 (human)) [%] | inhibition (EEF2K (human)) [%] | inhibition (MYLK (human)) [%] | inhibition (STK16 (human)) [%] | inhibition (MKNK2 (human)) [%] | inhibition (MAPK12 (human)) [%] | inhibition (PHKG1 (human)) [%] | inhibition (GCK (human)) [%] | inhibition (PRKACA (human)) | inhibition (MARK2 (human)) [%] | inhibition (NUAK1 (human)) [%] | inhibition (MAPK8 (human)) [%] | inhibition (ERBB4 (human)) [%] | inhibition (CaMK1 (human)) [%] | inhibition (PTK6 (human)) [%] | inhibition (MARK1 (human)) [%] | inhibition (IKBKE (human)) [%] | inhibition (MAPKAPK5 (human)) [%] | inhibition (AURKA (human)) [%] | also measured | Compound
8 | 21 | 7 | 13 | 15 | 26 | 6 | 8 | 29 | 0% and 11% | 0 | 6 | 0 | 48 | 9 | 30 | 5 | 22 | 13 | 17 | inhibition (LCK (mouse)): 23%; inhibition (MELK (human)): 1%; inhibition [1]: 0%; inhibition (YES1 (human)): 33%; inhibition (ABL1 (human)): 3%; inhibition (MAP3K9 (human)): 0%; inhibition (MAPK3 (human)): 3%; inhibition (GSK3B (human)): 44%; inhibition (PAK4 (human)): 11%; inhibition (SYK (human)): 20%; inhibition (MAPKAPK2 (human)): 22%; inhibition (IKBKB (human)): 15%; inhibition (MAP3K11 (human)): 7%; inhibition (NEK6 (human)): 7%; inhibition (PDPK1 (human); ATP 20 µM): 2%; inhibition (PDPK1 (human); ATP 50 µM): 15% | O=c1cc(-c2ccccc2F)nc2[nH]ccn12
4 | 0 | 35 | 0 | 6 | 0 | 1 | 3 | 0 | 0% and 15% | 13 | 3 | 14 | 28 | 35 | 21 | 26 | 0 | 75 | 2 | inhibition (LCK (mouse)): 2%; inhibition (MELK (human)): 7%; inhibition [1]: 3%; inhibition (YES1 (human)): 57%; inhibition (ABL1 (human)): 2%; inhibition (MAP3K9 (human)): 0%; inhibition (MAPK3 (human)): 0%; inhibition (GSK3B (human)): 64%; inhibition (PAK4 (human)): 0%; inhibition (SYK (human)): 13%; inhibition (MAPKAPK2 (human)): 0%; inhibition (IKBKB (human)): 22%; inhibition (MAP3K11 (human)): 0%; inhibition (NEK6 (human)): 0%; inhibition (PDPK1 (human); ATP 20 µM): 31%; inhibition (PDPK1 (human); ATP 50 µM): 26% | CC1CN(c2nc3ccccn3c(=O)c2N)CC(C)O1 (stereo not drawn)
86 | 33 | 16 | 25 | 3 | 6 | 17 | 38 | 95 | 8% and 12% | 53 | 76 | 41 | 65 | 60 | 67 | 49 | 13 | 83 | 89 | inhibition (LCK (mouse)): 39%; inhibition (MELK (human)): 43%; inhibition [1]: 41%; inhibition (YES1 (human)): 57%; inhibition (ABL1 (human)): 40%; inhibition (MAP3K9 (human)): 79%; inhibition (MAPK3 (human)): 23%; inhibition (GSK3B (human)): 51%; inhibition (PAK4 (human)): 50%; inhibition (SYK (human)): 30%; inhibition (MAPKAPK2 (human)): 20%; inhibition (IKBKB (human)): 66%; inhibition (MAP3K11 (human)): 63%; inhibition (NEK6 (human)): 0%; inhibition (PDPK1 (human); ATP 20 µM): 20%; inhibition (PDPK1 (human); ATP 50 µM): 57% | Nc1cnc2c(-c3c(F)cccc3F)cccn2c1=O
